Molecular target: CDK2/Cyclin E1 (Homo sapiens (Human), UniProt P24941)
Experiment: CDK2/Cyclin E1 HTRF enzyme activity assay
Format: biochemical
Settings: 1 mM ATP
Experimental: Assays are conducted in white 384-well polystyrene plates in a final reaction volume of 8 μL. […] HTRF signals are read after 1 hour at room temperature on a PHERAstar FS plate reader (BMG Labtech). Data is analyzed with IDBS XLFit and GraphPad Prism 5.0 software using a three or four parameter dose response curve to determine IC50 for each compound.

Q: How did the IC50 turn out when `CNCc1ccc(-n2cc(-c3nc(N[C@H]4CCN(S(=O)(=O)CCCC#N)C[C@H]4F)ncc3C#N)cn2)c(Cl)c1` [Example 122, 4-(1-(2-Chloro-4-((methylamino)methyl)phenyl)-1H-pyrazol-4-yl)-2-(((3R,4S)-1-((3-cyanopropyl)sulfonyl)-3-fluoropiperidin-4-yl)amino)pyrimidine-5-carbonitrile] was run?
A: < 50 nM

Q: How did the IC50 turn out when `CNCc1ccc(-n2cc(-c3nc(N[C@H]4CCN(S(=O)(=O)C5CC5)C[C@H]4F)ncc3C(F)(F)F)cn2)c(C)c1` [Example 123, N-((3R,4S)-1-(Cyclopropylsulfonyl)-3-fluoropiperidin-4-yl)-4-(1-(2-methyl-4-((methylamino)methyl)phenyl)-1H-pyrazol-4-yl)-5-(trifluoromethyl)pyrimidin-2-amine] was run?
A: < 50 nM

Q: `CNCc1ccc(-n2cc(-c3nc(NC4CCN(S(C)(=O)=O)CC4)ncc3Cl)cn2)c(Cl)c1` [Example 124, 5-Chloro-4-(1-(2-chloro-4-((methylamino)methyl)phenyl)-1H-pyrazol-4-yl)-N-(1-(methylsulfonyl)piperidin-4-yl)pyrimidin-2-amine] was tested. Which IC50 did it give?
A: < 50 nM

Q: For `CCNCc1ccc(-n2cc(-c3nc(NC4CCN(S(=O)(=O)CC)CC4)ncc3C#N)cn2)c(C)n1` [Example 125, 4-(1-(6-((Ethylamino)methyl)-2-methylpyridin-3-yl)-1H-pyrazol-4-yl)-2-((1-(ethylsulfonyl)piperidin-4-yl)amino)pyrimidine-5-carbonitrile], which IC50 is on record?
A: < 50 nM

Q: `CNCc1ccc(-n2cc(-c3nc(NC4CCN(S(=O)(=O)c5cn(C)cn5)CC4)ncc3C#N)cn2)c(C)n1` [Example 126, 2-((1-((1-Methyl-1H-imidazol-4-yl)sulfonyl)piperidin-4-yl)amino)-4-(1-(2-methyl-6-((methylamino)methyl)pyridin-3-yl)-1H-pyrazol-4-yl)pyrimidine-5-carbonitrile] was tested. Which IC50 did it give?
A: < 50 nM

Q: `CCNCc1ccc(-n2cc(-c3nc(NC4CCN(S(=O)(=O)c5cn(C)cn5)CC4)ncc3C#N)cn2)c(C)n1` [Example 127, 4-(1-(6-((Ethylamino)methyl)-2-methylpyridin-3-yl)-1H-pyrazol-4-yl)-2-((1-((1-methyl-1H-imidazol-4-yl)sulfonyl)piperidin-4-yl)amino)pyrimidine-5-carbonitrile] was tested. Which IC50 did it give?
A: < 50 nM

Q: Which IC50 does the source give for `[2H]C([2H])([2H])NCc1ccc(-n2cc(-c3nc(NC4CCN(S(C)(=O)=O)CC4)ncc3C(F)(F)F)cn2)c(C)c1` [Example 128, 4-(1-(2-Methyl-4-(((methyl-d3)amino)methyl)phenyl)-1H-pyrazol-4-yl)-N-(1-(methylsulfonyl)piperidin-4-yl)-5-(trifluoromethyl)pyrimidin-2-amine] here?
A: < 50 nM

Q: For `[2H]C([2H])([2H])NCc1ccc(-n2cc(-c3nc(NC4CCN(S(=O)(=O)CC)CC4)ncc3C(F)(F)F)cn2)c(C)c1` [Example 129, N-(1-(Ethylsulfonyl)piperidin-4-yl)-4-(1-(2-methyl-4-(((methyl-d3)amino)methyl)phenyl)-1H-pyrazol-4-yl)-5-(trifluoromethyl)pyrimidin-2-amine], which IC50 is on record?
A: < 50 nM

Q: With `[2H]C([2H])([2H])NCc1ccc(-n2cc(-c3nc(NC4CCN(S(=O)(=O)C5CC5)CC4)ncc3C(F)(F)F)cn2)c(C)c1` [Example 130, N-(1-(Cyclopropylsulfonyl)piperidin-4-yl)-4-(1-(2-methyl-4-(((methyl-d3)amino)methyl)phenyl)-1H-pyrazol-4-yl)-5-(trifluoromethyl)pyrimidin-2-amine] as the compound, how does the IC50 read?
A: < 50 nM

Q: `[2H]C([2H])([2H])NCc1ccc(-n2cc(-c3nc(NC4CCN(S(=O)(=O)c5ccn(C)n5)CC4)ncc3C(F)(F)F)cn2)c(C)c1` [Example 131, N-(1-((1-Methyl-1H-pyrazol-3-yl)sulfonyl)piperidin-4-yl)-4-(1-(2-methyl-4-(((methyl-d3)amino)methyl)phenyl)-1H-pyrazol-4-yl)-5-(trifluoromethyl)pyrimidin-2-amine] was tested. Which IC50 did it give?
A: < 50 nM

Q: For `[2H]C([2H])([2H])NCc1ccc(-n2cc(-c3nc(N[C@H]4CCN(S(C)(=O)=O)C[C@H]4F)ncc3C(F)(F)F)cn2)c(C)c1` [Example 132, N-((3R,4S)-3-Fluoro-1-(methylsulfonyl)piperidin-4-yl)-4-(1-(2-methyl-4-(((methyl-d3)amino)methyl)phenyl)-1H-pyrazol-4-yl)-5-(trifluoromethyl)pyrimidin-2-amine], which IC50 is on record?
A: < 50 nM

Q: Which IC50 does the source give for `[2H]C([2H])([2H])NCc1ccc(-n2cc(-c3nc(N[C@H]4CCN(S(=O)(=O)C5CC5)C[C@H]4F)ncc3C(F)(F)F)cn2)c(C)c1` [Example 133, N-((3R,4S)-1-(Cyclopropylsulfonyl)-3-fluoropiperidin-4-yl)-4-(1-(2-methyl-4-(((methyl-d3)amino)methyl)phenyl)-1H-pyrazol-4-yl)-5-(trifluoromethyl)pyrimidin-2-amine] here?
A: < 50 nM

Q: `[2H]C([2H])([2H])NCc1ccc(-n2cc(-c3nc(NC4CCN(S(C)(=O)=O)CC4)ncc3Cl)cn2)c(Cl)c1` [Example 134, 5-Chloro-4-(1-(2-chloro-4-(((methyl-d3)amino)methyl)phenyl)-1H-pyrazol-4-yl)-N-(1-(methylsulfonyl)piperidin-4-yl)pyrimidin-2-amine] was tested. Which IC50 did it give?
A: < 50 nM

Q: How did the IC50 turn out when `[2H]C([2H])([2H])NCc1ccc(-n2cc(-c3nc(NC4CCN(S(=O)(=O)C5CC5)CC4)ncc3Cl)cn2)c(Cl)c1` [Example 135, 5-Chloro-4-(1-(2-chloro-4-(((methyl-d3)amino)methyl)phenyl)-1H-pyrazol-4-yl)-N-(1-(cyclopropylsulfonyl)piperidin-4-yl)pyrimidin-2-amine] was run?
A: < 50 nM

Q: How did the IC50 turn out when `[2H]C([2H])([2H])NCc1ccc(-n2cc(-c3nc(NC4CCN(S(=O)(=O)c5cn(C)cn5)CC4)ncc3Cl)cn2)c(C)c1` [Example 136, 5-Chloro-N-(1-((1-methyl-1H-imidazol-4-yl)sulfonyl)piperidin-4-yl)-4-(1-(2-methyl-4-(((methyl-d3)amino)methyl)phenyl)-1H-pyrazol-4-yl)pyrimidin-2-amine] was run?
A: < 50 nM

Q: `[2H]C([2H])([2H])NCc1ccc(-n2cc(-c3nc(NC4CCN(S(=O)(=O)c5ccn(C)n5)CC4)ncc3Cl)cn2)c(C)c1` [Example 137, 5-Chloro-N-(1-((1-methyl-1H-pyrazol-3-yl)sulfonyl)piperidin-4-yl)-4-(1-(2-methyl-4-(((methyl-d3)amino)methyl)phenyl)-1H-pyrazol-4-yl)pyrimidin-2-amine] was tested. Which IC50 did it give?
A: < 50 nM

Q: Which IC50 does the source give for `[2H]C([2H])([2H])NCc1ccc(-n2cc(-c3nc(NC4CCN(S(=O)(=O)CC)CC4)ncc3C#N)cn2)c(Cl)c1` [Example 139, 4-(1-(2-Chloro-4-(((methyl-d3)amino)methyl)phenyl)-1H-pyrazol-4-yl)-2((1-(ethylsulfonyl)piperidin-4-yl)amino)pyrimidine-5-carbonitrile] here?
A: < 50 nM

Q: `[2H]C(NC([2H])([2H])[2H])c1ccc(-n2cc(-c3nc(NC4CCN(S(=O)(=O)CC)CC4)ncc3C#N)cn2)c(Cl)c1` (stereo not shown) [Example 140, 4-(1-(2-Chloro-4-(((methyl-d3)amino)methyl-d)phenyl)-1H-pyrazol-4-yl)-2-((1-(ethylsulfonyl)piperidin-4-yl)amino)pyrimidine-5-carbonitrile] was tested. Which IC50 did it give?
A: < 50 nM

Q: How did the IC50 turn out when `[2H]C([2H])([2H])NCc1ccc(-n2cc(-c3nc(NC4CCN(S(=O)(=O)C5CC5)CC4)ncc3C#N)cn2)c(Cl)c1` [Example 141, 4-(1-(2-Chloro-4-(((methyl-d3)amino)methyl)phenyl)-1H-pyrazol-4-yl)-2-((1-(cyclopropylsulfonyl)piperidin-4-yl)amino)pyrimidine-5-carbonitrile] was run?
A: < 50 nM

Q: With `[2H]C([2H])([2H])NCc1ccc(-n2cc(-c3nc(NC4CCN(S(=O)(=O)c5ccn(C)n5)CC4)ncc3C#N)cn2)c(Cl)c1` [Example 142, 4-(1-(2-Chloro-4-(((methyl-d3)amino)methyl)phenyl)-1H-pyrazol-4-yl)-2-((1-((1-methyl-1H-pyrazol-3-yl)sulfonyl)piperidin-4-yl)amino)pyrimidine-5-carbonitrile] as the compound, how does the IC50 read?
A: < 50 nM

Q: Which IC50 does the source give for `[2H]C([2H])([2H])NCc1ccc(-n2cc(-c3nc(N[C@H]4CCN(S(C)(=O)=O)C[C@H]4F)ncc3C#N)cn2)c(Cl)c1` [Example 143, 4-(1-(2-Chloro-4-(((methyl-d3)amino)methyl)phenyl)-1H-pyrazol-4-yl)-2-(((3R,4S)-3-fluoro-1-(methylsulfonyl)piperidin-4-yl)amino)pyrimidine-5-carbonitrile] here?
A: < 50 nM

Q: With `[2H]C([2H])([2H])NCc1ccc(-n2cc(-c3nc(N[C@H]4CCN(S(=O)(=O)CC)C[C@H]4F)ncc3C#N)cn2)c(Cl)c1` [Example 144, 4-(1-(2-Chloro-4-(((methyl-d3)amino)methyl)phenyl)-1H-pyrazol-4-yl)-2-(((3R,4S)-1-(ethylsulfonyl)-3-fluoropiperidin-4-yl)amino)pyrimidine-5-carbonitrile] as the compound, how does the IC50 read?
A: < 50 nM

Q: How did the IC50 turn out when `[2H]C([2H])([2H])NCc1ccc(-n2cc(-c3nc(N[C@H]4CCN(S(=O)(=O)C5CC5)C[C@H]4F)ncc3C#N)cn2)c(Cl)c1` [Example 145, 4-(1-(2-Chloro-4-(((methyl-d3)amino)methyl)phenyl)-1H-pyrazol-4-yl)-2-(((3R,4S)-1-(cyclopropylsulfonyl)-3-fluoropiperidin-4-yl)amino)pyrimidine-5-carbonitrile] was run?
A: < 50 nM

Q: With `[2H]C([2H])([2H])NCc1ccc(-n2cc(-c3nc(N[C@H]4CCN(S(=O)(=O)C5CC5)C[C@H]4C)ncc3C#N)cn2)c(Cl)c1` [Example 146, 4-(1-(2-Chloro-4-(((methyl-d3)amino)methyl)phenyl)-1H-pyrazol-4-yl)-2-(((3R,4S)-1-(cyclopropylsulfonyl)-3-methylpiperidin-4-yl)amino)pyrimidine-5-carbonitrile] as the compound, how does the IC50 read?
A: < 50 nM

Q: Which IC50 does the source give for `[2H]C([2H])([2H])NCc1ccc(-n2cc(-c3nc(N[C@H]4CCN(S(=O)(=O)c5ccn(C)n5)C[C@H]4C)ncc3C#N)cn2)c(Cl)c1` [Example 147, 4-(1-(2-Chloro-4-(((methyl-d3)amino)methyl)phenyl)-1H-pyrazol-4-yl)-2-(((3R,4S)-3-methyl-1-((1-methyl-1H-pyrazol-3-yl)sulfonyl)piperidin-4-yl)amino)pyrimidine-5-carbonitrile] here?
A: < 50 nM
